Experiments:
[1] = target: Neuronal acetylcholine receptor subunit alpha-7 (Rattus norvegicus, UniProt Q05941); assay: Binding affinity nicotinic acetylcholine receptor alpha-7 was evaluated by its ability to inhibit [3H]methyllycaconitine ([3H]-MLA) binding to rat brain membranes; parameters: species or system Membrane
[2] = target: Neuronal acetylcholine receptor; alpha4/beta2 (Rattus norvegicus, UniProt P09483+P12390); assay: Binding affinity for nicotinic acetylcholine receptor alpha4-beta2 was evaluated by its ability to inhibit [3H]NIC binding to rat brain membranes; parameters: species or system Membrane
Chain of Neuronal acetylcholine receptor; alpha4/beta2 (P09483 whole entry): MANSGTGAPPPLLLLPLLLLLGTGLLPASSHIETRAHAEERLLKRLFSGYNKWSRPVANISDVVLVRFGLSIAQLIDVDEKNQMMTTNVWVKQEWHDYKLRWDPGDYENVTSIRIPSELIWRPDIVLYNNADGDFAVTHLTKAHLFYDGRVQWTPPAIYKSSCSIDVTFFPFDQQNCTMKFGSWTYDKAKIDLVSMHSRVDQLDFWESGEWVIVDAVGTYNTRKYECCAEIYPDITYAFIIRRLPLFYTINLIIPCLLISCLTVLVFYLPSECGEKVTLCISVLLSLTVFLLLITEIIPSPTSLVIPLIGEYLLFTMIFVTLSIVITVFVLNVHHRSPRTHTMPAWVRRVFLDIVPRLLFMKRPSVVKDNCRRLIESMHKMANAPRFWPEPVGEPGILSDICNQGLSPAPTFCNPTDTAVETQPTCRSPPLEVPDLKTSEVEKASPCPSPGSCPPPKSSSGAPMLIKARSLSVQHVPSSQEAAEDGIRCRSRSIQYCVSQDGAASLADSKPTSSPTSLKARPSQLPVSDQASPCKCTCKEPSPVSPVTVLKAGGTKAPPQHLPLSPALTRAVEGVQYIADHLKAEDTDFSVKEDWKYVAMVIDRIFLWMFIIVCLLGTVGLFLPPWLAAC
Chain of Neuronal acetylcholine receptor; alpha4/beta2 (P12390 whole entry): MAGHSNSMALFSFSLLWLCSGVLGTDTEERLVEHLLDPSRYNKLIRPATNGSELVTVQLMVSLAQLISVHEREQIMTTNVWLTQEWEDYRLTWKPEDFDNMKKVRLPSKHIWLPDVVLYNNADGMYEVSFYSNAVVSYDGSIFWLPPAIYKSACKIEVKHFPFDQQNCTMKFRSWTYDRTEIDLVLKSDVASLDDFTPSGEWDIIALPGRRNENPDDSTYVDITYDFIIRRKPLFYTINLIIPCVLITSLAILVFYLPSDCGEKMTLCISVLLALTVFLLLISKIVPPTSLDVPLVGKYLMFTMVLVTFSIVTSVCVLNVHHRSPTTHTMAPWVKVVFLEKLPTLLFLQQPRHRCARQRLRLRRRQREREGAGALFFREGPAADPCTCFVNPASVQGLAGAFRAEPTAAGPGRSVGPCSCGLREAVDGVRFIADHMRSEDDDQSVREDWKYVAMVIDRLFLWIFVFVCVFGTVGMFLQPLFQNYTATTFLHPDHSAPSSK

Rattus norvegicus = species on record: Rattus norvegicus; assay: Compound was evaluated for inhibiting NIC-evoked [86Rb+] efflux from rat thalamic synaptosomes; format: functional; details: Brain

Chain of Neuronal acetylcholine receptor subunit alpha-7 (Q05941 whole entry): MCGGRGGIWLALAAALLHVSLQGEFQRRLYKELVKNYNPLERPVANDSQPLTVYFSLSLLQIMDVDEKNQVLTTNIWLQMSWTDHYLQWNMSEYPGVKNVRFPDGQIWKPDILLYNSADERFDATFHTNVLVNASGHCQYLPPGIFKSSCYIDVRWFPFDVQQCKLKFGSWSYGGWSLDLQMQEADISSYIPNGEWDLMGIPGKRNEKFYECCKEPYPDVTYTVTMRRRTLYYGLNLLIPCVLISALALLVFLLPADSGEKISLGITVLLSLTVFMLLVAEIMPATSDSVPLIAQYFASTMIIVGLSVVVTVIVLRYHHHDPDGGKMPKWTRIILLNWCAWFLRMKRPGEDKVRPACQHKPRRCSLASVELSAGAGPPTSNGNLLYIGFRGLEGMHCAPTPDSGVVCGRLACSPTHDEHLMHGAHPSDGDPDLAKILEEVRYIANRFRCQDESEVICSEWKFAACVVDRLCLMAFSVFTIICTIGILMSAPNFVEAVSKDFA

Row | Compound | Ki [1] [µM] | Ki [2] [µM] | IC50 (Rattus norvegicus) [µM]
1 | CN1CCC[C@H]1c1ccc[n+](CCCCCCCCCCCC[n+]2cccc([C@@H]3CCCN3C)c2)c1 | > 100 | – | –
2 | Cc1ccc[n+](CCCCCCCCCCCC[n+]2cccc(C)c2)c1 | > 100 | 48.6 | –
3 | c1ccc2c(c1)ccc[n+]2CCCCCCCCCCCC[n+]1cccc2ccccc21 | – | > 100 | –
4 | c1ccc2c(c1)ccc[n+]2CCCCCCCC[n+]1cccc2ccccc21 | 2.39 | > 100 | –
5 | Cc1ccc[n+](CCCCCCCCCC[n+]2cccc(C)c2)c1 | > 100 | > 100 | –
6 | c1ccc2c[n+](CCCCCCCCC[n+]3ccc4ccccc4c3)ccc2c1 | 5.95 | 7.89 | –
7 | CCCCCCCCCC[n+]1cccc([C@@H]2CCCN2C)c1 | > 100 | 0.064 | –
8 | Cc1ccc[n+](CCCCCC[n+]2cccc(C)c2)c1 | > 100 | > 100 | –
9 | CCCCCCCC[n+]1cccc([C@@H]2CCCN2C)c1 | 23.6 | – | –
10 | Cc1ccc[n+](CCCCCCCCCCC[n+]2cccc(C)c2)c1 | > 100 | – | –
11 | c1ccc2c(c1)ccc[n+]2CCCCCC[n+]1cccc2ccccc21 | – | 39.3 | –
12 | c1ccc2c[n+](CCCCCCCCCC[n+]3ccc4ccccc4c3)ccc2c1 | 7.25 | > 100 | –
13 | CN1CCC[C@H]1c1ccc[n+](CCCCCCCCCC[n+]2cccc([C@@H]3CCCN3C)c2)c1 | > 100 | 0.33 | 3.76
14 | c1ccc2c(c1)ccc[n+]2CCCCCCCCCC[n+]1cccc2ccccc21 | 7.81 | > 100 | –
15 | CN1CCC[C@H]1c1ccc[n+](CCCCCCCCC[n+]2cccc([C@@H]3CCCN3C)c2)c1 | > 100 | 5.03 | –
16 | c1cc[n+](CCCCCCCCCCC[n+]2ccccc2)cc1 | 57 | 14 | –

Row | Compound | Ki [1] [µM] | Ki [2] [µM] | IC50 (Rattus norvegicus) [µM]
17 | Cc1ccc[n+](CCCCCCCC[n+]2cccc(C)c2)c1 | > 100 | > 100 | –
18 | CN1CCC[C@H]1c1ccc[n+](CCCCCC[n+]2cccc([C@@H]3CCCN3C)c2)c1 | > 100 | – | –
19 | c1cc[n+](CCCCCCCCCC[n+]2ccccc2)cc1 | > 100 | – | –
20 | Cc1ccc[n+](CCCCCCCCC[n+]2cccc(C)c2)c1 | > 100 | 79.9 | –
21 | COc1cc2c3cc1Oc1cc(ccc1O)C[C@@H]1c4c(cc(OC)c(O)c4Oc4ccc(cc4)C[C@@H]3N(C)CC2)CC[N+]1(C)C | 4.79 | 9.72 | –
22 | c1cc[n+](CCCCC[n+]2ccccc2)cc1 | > 100 | > 100 | –
23 | c1ccc2c[n+](CCCCCCCCCCC[n+]3ccc4ccccc4c3)ccc2c1 | 5.46 | – | –
24 | CN1CCC[C@H]1c1ccc[n+](CCCCCCCCCCC[n+]2cccc([C@@H]3CCCN3C)c2)c1 | > 100 | 0.43 | 5.22
25 | c1cc[n+](CCCCCCCC[n+]2ccccc2)cc1 | > 100 | 34.3 | –
26 | c1cc[n+](CCCCCCCCC[n+]2ccccc2)cc1 | > 100 | – | –
27 | c1cc[n+](CCCCCC[n+]2ccccc2)cc1 | > 100 | – | –
28 | c1ccc2c[n+](CCCCCCCC[n+]3ccc4ccccc4c3)ccc2c1 | 11.7 | 65.5 | –
29 | c1ccc2c(c1)ccc[n+]2CCCCCCCCC[n+]1cccc2ccccc21 | 3.58 | 22.5 | –
30 | C[N+](C)(C)CCCCCC[N+](C)(C)C [HEXAMETHONIUM CHLORIDE] | > 100 | 21.7 | –
31 | CN1CCC[C@H]1c1ccc[n+](CCCCCCCC[n+]2cccc([C@@H]3CCCN3C)c2)c1 | > 100 | 1.54 | –
32 | c1ccc2c(c1)ccc[n+]2CCCCCCCCCCC[n+]1cccc2ccccc21 | 2.58 | 37.8 | –

— ChEMBL document CHEMBL1135953, “bis-Azaaromatic quaternary ammonium analogues: ligands for alpha4beta2* and alpha7* subtypes of neuronal nicotinic receptors” (Bioorg Med Chem Lett, 2002)
